Broadly, the Ki is a measure of affinity in units of concentration, obtained from inhibition or displacement.

For the assay, the target named is Carbonic anhydrase 9 (Homo sapiens, UniProt Q16790).
Description: Inhibition of recombinant human carbonic anhydrase 9 catalytic domain expressed in Escherichia coli incubated for 15 mins prior to testing by stopped flow CO2 hydrase assay
On to `CC1(C)CC(=O)C2=C(C1)N(c1ccc(S(N)(=O)=O)cc1)C1=C(C(=O)CC(C)(C)C1)C2c1ccc(N)cc1`, for which the Ki came out at 1 µM. As for `CC1(C)CC(=O)C2=C(C1)N(c1ccc(S(N)(=O)=O)cc1)C1=C(C(=O)CC(C)(C)C1)C2c1cccc(N)c1`, the figure is 0.92 µM; as for `CC1(C)CC(=O)C2=C(C1)N(c1ccc(S(N)(=O)=O)cc1)C1=C(C(=O)CC(C)(C)C1)C2c1ccc(NS(=O)(=O)c2ccccc2)cc1`, 0.58 µM.

`Cc1ccc(S(=O)(=O)Nc2ccc(C3C4=C(CC(C)(C)CC4=O)N(c4ccc(S(N)(=O)=O)cc4)C4=C3C(=O)CC(C)(C)C4)cc2)cc1` came in with a Ki of 0.1 µM.

`COc1ccc(S(=O)(=O)Nc2ccc(C3C4=C(CC(C)(C)CC4=O)N(c4ccc(S(N)(=O)=O)cc4)C4=C3C(=O)CC(C)(C)C4)cc2)cc1` registered a Ki of 0.44 µM.

With `CC1(C)CC(=O)C2=C(C1)N(c1ccc(S(N)(=O)=O)cc1)C1=C(C(=O)CC(C)(C)C1)C2c1ccc(NS(=O)(=O)c2ccc(Br)cc2)cc1`, the Ki is 1.12 µM.

Turning to `CC1(C)CC(=O)C2=C(C1)N(c1ccc(S(N)(=O)=O)cc1)C1=C(C(=O)CC(C)(C)C1)C2c1ccc(NS(=O)(=O)c2ccc3ccccc3c2)cc1`, the affinity, expressed as Ki, was 0.28 µM.

In turn, `CC1(C)CC(=O)C2=C(C1)N(c1ccc(S(N)(=O)=O)cc1)C1=C(C(=O)CC(C)(C)C1)C2c1cccc(NS(=O)(=O)c2ccccc2)c1` returned a Ki of 0.11 µM. For `Cc1ccc(S(=O)(=O)Nc2cccc(C3C4=C(CC(C)(C)CC4=O)N(c4ccc(S(N)(=O)=O)cc4)C4=C3C(=O)CC(C)(C)C4)c2)cc1`, the Ki worked out at 0.1 µM. As for `COc1ccc(S(=O)(=O)Nc2cccc(C3C4=C(CC(C)(C)CC4=O)N(c4ccc(S(N)(=O)=O)cc4)C4=C3C(=O)CC(C)(C)C4)c2)cc1`, the figure is 0.8 µM; as for `CC1(C)CC(=O)C2=C(C1)N(c1ccc(S(N)(=O)=O)cc1)C1=C(C(=O)CC(C)(C)C1)C2c1cccc(NS(=O)(=O)c2ccc(Br)cc2)c1`, 0.25 µM. Under `CC1(C)CC(=O)C2=C(C1)N(c1ccc(S(N)(=O)=O)cc1)C1=C(C(=O)CC(C)(C)C1)C2c1cccc(NS(=O)(=O)c2ccc3ccccc3c2)c1` stands 0.81 µM.

The record behind these values is ChEMBL document CHEMBL3621088, “Synthesis of novel acridine bis-sulfonamides with effective inhibitory activity against the carbonic anhydrase isoforms I, II, IX and XII” (Bioorg Med Chem, 2015).
